Measurements from PMC6858373 (Scientific Reports, 2019).
pEC50: −log10 of the molar value. Like-named read-outs stand apart in the source and are kept apart here.

Experiments:
[1] = target: full-length P. pyralis luciferase (Photinus pyralis, UniProt P08659, K549A/L550V/N119G/N50D/S548I); format: cell-based; details: for Luciferase Assay % Lum / Luciferase Assay Z-score: CC_NCI screening, normalized to on-plate 0.3% DMSO controls; for Luciferase Assay % Lum: full-length luciferase counter-screen luminescence; for Luciferase Assay Z-score: full-length luciferase counter-screen
Sequence of full-length P. pyralis luciferase (P08659 whole entry N50D/N119G/S548I/K549A/L550V, looked up): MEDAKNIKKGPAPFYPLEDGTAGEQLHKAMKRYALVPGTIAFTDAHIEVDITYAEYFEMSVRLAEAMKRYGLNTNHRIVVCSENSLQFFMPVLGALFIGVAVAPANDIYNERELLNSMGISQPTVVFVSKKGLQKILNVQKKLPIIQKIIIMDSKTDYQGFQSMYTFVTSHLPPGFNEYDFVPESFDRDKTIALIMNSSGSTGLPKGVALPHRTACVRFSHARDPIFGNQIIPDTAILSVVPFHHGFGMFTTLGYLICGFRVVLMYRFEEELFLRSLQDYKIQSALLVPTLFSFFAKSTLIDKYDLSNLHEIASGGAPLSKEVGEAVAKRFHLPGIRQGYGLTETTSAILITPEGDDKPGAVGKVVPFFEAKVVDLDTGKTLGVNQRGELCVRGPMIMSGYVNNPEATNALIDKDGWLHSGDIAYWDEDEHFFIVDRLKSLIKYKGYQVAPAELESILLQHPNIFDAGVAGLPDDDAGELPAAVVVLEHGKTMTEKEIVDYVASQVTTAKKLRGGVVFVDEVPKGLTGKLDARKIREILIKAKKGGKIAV

[2] = target: T1, FGF14:Nav1.6 C-tail complex (Homo sapiens, UniProt Q92915+Q9UQD0); assay: Split-luciferase complementation assay (LCA) in Clone V double stable HEK293 cells; format: cell-based; details: for Split Luciferase Assay % Lum Set 1 / Split Luciferase Assay %Lum Set 2 / Split Luciferase Assay Z-score Set 1 / Split Luciferase Assay Z-score Set 2 / Split Luciferase Assay %Lum Avg: CC_NCI screening; for Split Luciferase Assay % Lum Set 1 / Split Luciferase Assay %Lum Set 2: LCA luminescence, normalized to on-plate 0.3% DMSO controls (n=16 per plate); for Split Luciferase Assay % Lum Set 1 / Split Luciferase Assay Z-score Set 1: biological replicate Set 1; for Split Luciferase Assay %Lum Set 2 / Split Luciferase Assay Z-score Set 2: biological replicate Set 2; for Split Luciferase Assay Z-score Set 1 / Split Luciferase Assay Z-score Set 2: LCA, normalized to on-plate 0.3% DMSO controls; for Split Luciferase Assay %Lum Avg: average of Set 1 and Set 2, normalized to 0.3% DMSO controls; for signal-background (S:B) ratio: 50 ng/mL TNF-α vs 0.3% DMSO, n = 16
T1 construct: polymerase chain reaction (PCR) amplification of the FGF14 open reading frame (nt 1–855); C-terminal fragment of Nav1.6 (amino acids 1763–1976) fused with CD4ΔC-tail (amino acids 1–395); expressed in transfected cells
T1 sequence (Q92915 1-252 isoform Q92915-2): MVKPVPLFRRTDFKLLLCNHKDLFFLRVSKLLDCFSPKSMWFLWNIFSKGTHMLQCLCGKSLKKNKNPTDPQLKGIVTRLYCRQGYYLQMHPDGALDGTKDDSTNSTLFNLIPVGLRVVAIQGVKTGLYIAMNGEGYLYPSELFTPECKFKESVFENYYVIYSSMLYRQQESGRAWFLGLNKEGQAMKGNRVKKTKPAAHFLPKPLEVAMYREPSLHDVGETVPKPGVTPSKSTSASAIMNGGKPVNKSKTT
T1 sequence (Q9UQD0 1763-1976 limits assumed): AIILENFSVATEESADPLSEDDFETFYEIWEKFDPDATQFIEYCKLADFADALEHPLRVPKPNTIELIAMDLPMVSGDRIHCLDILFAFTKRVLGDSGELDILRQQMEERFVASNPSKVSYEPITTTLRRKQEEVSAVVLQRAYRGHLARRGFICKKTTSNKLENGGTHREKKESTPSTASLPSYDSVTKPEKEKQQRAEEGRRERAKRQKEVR

Compound | Luciferase Assay % Lum [1] [%] | Luciferase Assay Z-score [1] | Split Luciferase Assay % Lum Set 1 [2] [%] | Split Luciferase Assay %Lum Set 2 [2] [%] | Split Luciferase Assay Z-score Set 1 [2] | Split Luciferase Assay Z-score Set 2 [2] | Split Luciferase Assay %Lum Avg [2] [%] | Toxicity Assay % Fluor (Clone V cells) [%] | Toxicity Assay Z-score (Clone V cells) | Toxicity Assay % Fluor (Clone V cells; human, 16 h, 30 µM) [%] | Toxicity Assay Z-score (Clone V cells; human, 16 h, 30 µM) | other results
COc1cc2c(cc1OC)[C@@H]1C(=O)c3ccc4c(c3O[C@@H]1CO2)C=CC(C)(C)O4 [DEGUELIN] | 66.30 | -4.32 | 27.50 | 26.01 | -5.86 | -6.02 | 26.76 |  |  |  |  | Toxicity Assay % Fluor (Clone V cells; human): 100.58%; Toxicity Assay Z-score (Clone V cells; human): 0.08
OCCn1cc(-c2cnc3nnn(Cc4ccc5ncccc5c4)c3n2)cn1 [PF-04217903] | 111.09 | 1.42 | 90.56 | 78.02 | -0.76 | -1.79 | 84.29 | 99.86 | -0.02 |  |  | 
Cc1ccc(Nc2nccc(N(C)c3ccc4c(C)n(C)nc4c3)n2)cc1S(N)(=O)=O.Cl [Pazopanib hydrochloride] | 59.40 | -5.20 | 13.37 | 28.09 | -7.00 | -5.85 | 20.73 | 92.21 | -1.09 |  |  | 
CN1CCN(c2ccc3nc(-c4c(N)c5c(F)cccc5[nH]c4=O)[nH]c3c2)CC1 [CHIR 258] | 93.31 | -0.86 | 66.64 | 66.58 | -2.70 | -2.72 | 66.61 |  |  | 81.15 | -2.64 | 
CNC(=O)c1ccccc1Sc1ccc2c(/C=C/c3ccccn3)n[nH]c2c1 [Axitinib] | 24.49 | -9.67 | 32.94 | 31.21 | -5.42 | -5.60 | 32.07 | 91.66 | -1.17 |  |  | 
Cn1cc(C2=C(c3cn(C4CCN(Cc5ccccn5)CC4)c4ccccc34)C(=O)NC2=O)c2ccccc21 [ENZASTAURIN] | 90.70 | -1.19 | 84.03 | 96.75 | -1.29 | -0.26 | 90.39 |  |  | 95.12 | -0.68 | 
TNF-α |  |  |  |  |  |  |  |  |  |  |  | % maximal luminescence, full-length luciferase (normalized mean and SD) ([1]; TNF-α 50 ng/mL, 96-well plates): 105.7% ± 2.5%; mean effect relative to that of triciribine [2]: over 2 fold; signal-background (S:B) ratio ([2]; 1 × 10^4 cells per 384-well): 2.05 ± 0.11 X background signal; signal-background (S:B) ratio ([2]; 2 × 10^4 cells per 384-well): 2.26 ± 0.18 X background signal; signal-background (S:B) ratio ([2]; 3 × 10^4 cells per 384-well): 2.60 ± 0.14 X background signal; signal-background (S:B) ratio ([2]; 4 × 10^4 cells per 384-well): 2.12 ± 0.16 X background signal; % luminescence (mean and SD, normalized to DMSO) ([2]; 50 ng/mL TNF-α, Clone V cells, 96-well plates): 210.8% ± 18.6%; cell viability vs untreated cells (CTB fluorescence) (Clone V cells): no significant difference in cell viability
CS(=O)(=O)c1ccc(C(=O)Nc2ccc(Cl)c(-c3ccccn3)c2)c(Cl)c1 [Vismodegib, reference compound] | 90.92 | -1.16 | 175.35 | 147.72 | 6.09 | 3.88 | 161.54 |  |  | 93.24 | -0.95 | Z-score (LCA primary screening) ([2]; 30 µM, 384-well, average of primary screening (n = 2), vs on-plate 0.3% DMSO): 4.99; EMax (% Luminescence) ([2]; agonists, Clone V cells, 384-well, normalized to DMSO): 161.54 % Luminescence; pEC50 ([2]; estimated, 8-point dose response 0.25-30 µM, n = 4 per concentration, library compounds, read-out: EC50): 5.72
CCNC(=O)c1noc(-c2cc(C(C)C)c(O)cc2O)c1-c1ccc(CN2CCOCC2)cc1 [NVP AUY922] | 86.39 | -1.74 | 40.55 | 50.98 | -4.80 | -3.99 | 45.76 |  |  | 88.69 | -1.58 | 
CO[C@H]1C[C@@H]2CC[C@@H](C)[C@@](O)(O2)C(=O)C(=O)N2CCCC[C@H]2C(=O)O[C@H]([C@H](C)C[C@@H]2CC[C@@H](OC(=O)C(C)(CO)CO)[C@H](OC)C2)CC(=O)[C@H](C)/C=C(\C)[C@@H](O)[C@@H](OC)C(=O)[C@H](C)C[C@H](C)/C=C/C=C/C=C/1C [Temsirolimus] | 68.61 | -4.02 | 50.33 | 62.42 | -4.01 | -3.06 | 56.38 | 93.12 | -0.96 |  |  | 
CCOC(=O)C1=C(N)Oc2ccc(Br)cc2C1C(C#N)C(=O)OCC (centres unmarked) [HA14-1] | 99.78 | -0.03 | 80.77 | 97.79 | -1.55 | -0.18 | 89.28 | 102.67 | 0.37 |  |  | 
